{"source": "patent US20110319340A1", "about": "“METHODS FOR TREATING CANCER” (The Board of Regents, The University of Texas System, priority 2008, published 2011)", "type_in_all_cases": "cell-based", "key": {"[1]": {"test_system": "bone morphogenetic protein 9 (BMP9)", "experiment": "Gene array analysis of BMP9 expression in human coronary artery endothelial cells", "conditions": "TP508 50 μg/ml or TNF alpha 5 ng/ml, 6 hours", "experimental": "Human coronary artery endothelial cells (Cambrex BioScience; Walkersville, Md.) were split into T-75 flasks (BD Falcon) and cultured in endothelial cell basal medium (EBM) with 2% fetal bovine serum (FBS) and growth factors (SingleQuotsTM, Clonetics, San Diego, Calif.) in 5% CO2 at 37° C. […] All procedures and analysis of gene array data were performed in the UTMB Molecular Genomics and MicroArray Core Facility."}, "[2]": {"test_system": "bovine aortic endothelial cells", "experiment": "Binding of KML4A colon cancer cells to bovine aortic endothelial cell monolayers", "conditions": "TNF alpha 50 ng/ml for 24 hours; binding after 30 minutes", "procedure": "In this experiment, bovine aortic endothelial cells (BAEC; Cambrex BioScience; Walkersville, Md.) were plated in 24-well plastic tissue culture plates (BD Falcon™) at a density of 35,000 cells per cm^2 and cultured in endothelial cell basal medium (EBM) with 2% fetal bovine serum (FBS) and growth factors (SingleQuots™, Clonetics, San Diego, Calif.) in 5% CO2 at 37° C. for three days. BAEC monolayer cultures were then pretreated with saline (Control) or TP508 (TP) and then treated with saline or TNF alpha (TNF, 50 ng/ml) for 24 hours. KML4A cells were labeled with fluorescent CytoTracker™ as described in Example 1 above and added to the BAEC monolayers in EBM medium complete with fetal bovine serum and SingleQuot growth factor supplements (30,000 cells per well). After thirty (30) minutes, the cell monlayers were rinsed two times to remove unbound KML4A cells and the monolayers were solubilized using 200 μl of Cell Solubilizing Solution (Cell Biolabs, Inc.). Fluorescence of the solubilized KML4A that had bound to the endothelial cells was measured by transferring aliquots of the solubilized monolayers to 96-well black plates and reading them in a SyQuest BioLabs Fluorescent Plate Reader (480 nm/520 nm). Data is expressed as Relative Fluorescence Units."}, "[3]": {"test_system": "human microvascular endothelial cells", "experiment": "Phase contrast micrographs of human microvascular endothelial cells co-incubated with KML4A cells", "conditions": "after 22 hours; TP508 50 μg/ml 8 hours pretreatment; thrombin 2 U/ml or TNF alpha 5 ng/ml 16 hours", "experimental": "Human microvascular endothelial cells (Cambrex BioScience; Walkersville, Md.) were plated on 48-well tissue culture plates (BD Falcon) 30,000 cells per well, and cultured in endothelial cell basal medium (EBM) with 2% fetal bovine serum (FBS) and growth factors (SingleQuots™, Clonetics, San Diego, Calif.) in 5% CO2 at 37° C. for three days. […] Photomicrographs were captured at various times after addition of KML4A cells using an inverted Leitz Diavert microscope (original magnification, 200×) equipped with Spot Idea™ digital camera (Diagnostic Instruments, Inc.). Micrographs were taken at the center of each well to avoid any differences in original cell density."}, "[4]": {"test_system": "metastasis associated in colon cancer 1 (MACC1)", "experiment": "Gene array analysis of MACC1 mRNA in human coronary artery endothelial cells", "conditions": "TNF alpha 5 ng/ml, 6 hours", "experimental": "(§1) Human coronary artery endothelial cells (Cambrex BioScience; Walkersville, Md.) were split into T-75 flasks (BD Falcon) and cultured in endothelial cell basal medium (EBM) with 2% fetal bovine serum (FBS) and growth factors (SingleQuotsTM, Clonetics, San Diego, Calif.) in 5% CO2 at 37° C. […] After 6 hours of incubation, total RNA was isolated using RNAqueous kits (Ambion, Austin, Tex.) as described by the manufacturer. mRNA samples were reverse-transcribed using Taqman Reverse Transcription Reagents Kits (Applied Biosystems, Inc.) and analyzed by gene array analysis using […] plus 2 chip sets (Affimetrix). All procedures and analysis of gene array data were performed in the UTMB Molecular Genomics and MicroArray Core Facility."}, "snail homolog 3 (SNAI3)": {"test_system": "snail homolog 3 (SNAI3)", "experiment": "Gene array analysis of SNAI3 expression in human coronary artery endothelial cells", "conditions": "TNF alpha 5 ng/ml, 6 hours", "experimental": "as §1, with “(Affimetrix).” for “(Affimetrix). All procedures and analysis of gene array data were performed in the UTMB Molecular Genomics and MicroArray Core Facility.”"}, "[5]": {"test_system": "melanoma cell adhesion molecule (MCAM)", "experiment": "Gene array analysis of MCAM expression in human coronary artery endothelial cells", "conditions": "TNF alpha 5 ng/ml, 6 hours", "experimental": "as §1"}, "[6]": {"test_system": "human umbilical vein endothelial cells", "experiment": "Phase contrast micrographs of human umbilical vein endothelial cells co-incubated with KML4A cells", "conditions": "after 22 hours; thrombin 2 U/ml 16 hours, with or without TP508 50 μg/ml 8 hours pretreatment", "excerpt": "Photomicrographs were captured at various times after addition of KML4A cells using an inverted Leitz Diavert microscope (original magnification, 200×) equipped with Spot Idea™ digital camera (Diagnostic Instruments, Inc.). Micrographs were taken at the center of each well to avoid any differences in original cell density."}, "[7]": {"test_system": "human umbilical vein endothelial cells", "experiment": "Transendothelial migration of KML4A tumor cells through human umbilical vein endothelial cell monolayer", "conditions": "thrombin 2 U/ml for 24 hours; migration after 18 hr", "source_text": "In this experiment, as in Example 1, KML4A tumor cells derived from a human colon cancer and selected for repeated metastasis to the liver (Morikawa et al., supra) were harvested from established cultures and labeled with fluorescent CytoTracker™ (Cell Biolabs, inc.) and re-established as a uniform cell suspension. Human endothelial cell monolayers were established in transmembrane inserts supplied by Cell Biolabs, Inc., by plating 50,000 human umbilical vein endothelial cells (Cambrex BioScience; Walkersville, Md.) per insert and culturing them in endothelial cell basal medium (EBM) with 2% fetal bovine serum (FBS) and growth factors (SingleQuots™, Clonetics, San Diego, Calif.) in 5% CO2 at 37° C. for three days. […] Fluorescently labeled KML4A tumor cells (35,000 cells per insert in serum-free medium containing 1% bovine serum albumin) were then added to the culture inserts and the inserts placed into wells of a 24-well tissue culture plate (BD Falcon) with 0.5 ml of growth medium containing 10% fetal bovine serum to act as a chemoatractant for the tumor cells. The number of cells migrating through the filter inserts to the filter bottom was determined 18 hr later by measuring the fluorescence of material recovered from the filter bottom using a SyQuest BioLabs Fluorescent Plate Reader (480 nm/529 nm). Data is expressed as Relative Fluorescence Units."}}, "data": [{"substance": "TNF alpha", "values": [{"measurement": "effect on expression of BMP9", "setting": "[1]", "value": "does not"}, {"measurement": "increase of binding of KML4A cells", "setting": "[2]", "value": "approximately 8 fold"}, {"measurement": "endothelial cell damage and loss after co-incubation with KML4A cells", "setting": "[3]", "value": "damaged and released from the culture substrate"}, {"measurement": "effect on endothelial cell expression of MACC1 mRNA", "setting": "[4]", "value": "increases endothelial cell expression of MACC1"}, {"measurement": "effect on endothelial cell expression of SNAI3", "setting": "snail homolog 3 (SNAI3)", "value": "increases endothelial cell expression of SNAI3"}, {"measurement": "effect on endothelial cell expression of MCAM", "setting": "[5]", "value": "increases endothelial cell expression of MCAM"}]}, {"substance": "Thrombin", "values": [{"measurement": "endothelial cells remaining after co-incubation with KML4A cells", "setting": "[6]", "value": "few if any remaining endothelial cells"}, {"measurement": "endothelial cell damage and loss after co-incubation with KML4A cells", "setting": "[3]", "value": "damaged and released from the culture substrate"}, {"measurement": "effect on KML4A transedothelial migration", "setting": "[7]", "value": "increased transedothelial migration"}]}]}
